Experimental data: PMC4815915 (Bioorganic & medicinal chemistry letters, 2015)
Each block holds one molecule with its values, some of them ahead of it.

Experiments:
[1] = test system: Plasmodium falciparum 3D7 strain; experiment: In vitro antiplasmodial activity against chloroquine-susceptible 3D7 strain; type: cell-based
[2] = test system: rat microglia TXB2 generation; details: read-out: TXB2 generation apparent IC50; cited from earlier work

Structure (SMILES): [C-]#[N+]C(C)(C)C[C@@H]1C[C@H](C)[C@H]2CC[C@H](C)[C@@]3([N+]#[C-])CCC(=C)[C@@H]1[C@H]23 [Compound 3, 8,15-diisocyano-11(20)-amphilectene]
Fold more active than the standard drug CQ (3D7) ([1]; antiplasmodial IC50 compared with chloroquine): 5.5 times

IC50 ([1]; Plasmodium falciparum, 3D7, read-out: 3D7 IC50 ± SE): 6.6 ± 0.0008 nM
Structure (SMILES): CCN(CC)CCCC(C)Nc1ccnc2cc(Cl)ccc12 (stereo not drawn) [CQ, chloroquine]

Structure (SMILES): CC(C(=O)O)c1ccc(-c2ccccc2)c(F)c1 (stereo not drawn) [flurbiprofen]
IC50 [2]: 100 nM
